Reference: patent US20220009918A1, “Chemical Compounds” (GlaxoSmithKline Intellectual Property Development Limited, priority 2018, published 2022)

Key:
human H-PGDS = molecular target: T1, human H-PGDS (Homo sapiens, UniProt O60760); assay: H-PGDS RapidFire high throughput mass spectrometry assay; format: biochemical; details: inhibition of conversion of PGH2 to PGD2 by H-PGDS; mean pIC50; read-out: Potency Range (mean pIC50) (converted)
T1 construct: Full length human H-PGDS cDNA (Invitrogen Ultimate ORF IOH13026) was amplified by PCR; 6-His (N); TEV protease cleavage site (N); made in house; host or cells: E. coli BL21 (DE3*) for H-PGDS; Sf9 insect cells (baculovirus) for COX-2
T1 sequence (O60760 whole entry): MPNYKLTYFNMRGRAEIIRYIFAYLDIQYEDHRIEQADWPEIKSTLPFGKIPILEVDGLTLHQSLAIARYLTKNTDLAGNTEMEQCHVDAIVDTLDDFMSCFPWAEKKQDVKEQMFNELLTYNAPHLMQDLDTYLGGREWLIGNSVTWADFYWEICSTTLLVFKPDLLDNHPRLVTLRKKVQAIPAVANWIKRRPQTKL
Outline: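 Full-length His-tagged human H-PGDS from E. coli converted PGH2, generated in situ (~10 μM burst) from arachidonic acid by FLAG-tagged human COX-2 (Sf9-expressed). PGD2 and PGF2α (substrate surrogate) were measured by RapidFire SPE-triple quadrupole MS. Percent conversion was calculated, and inhibition was taken as reduced conversion.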

male C57Bl/6N mice = assay: In vivo functional response to muscle injury (eccentric contraction-induced); set-up: species or system mouse
Description: FIG. 1. Effect of different doses of an H-PGDS inhibitor, Example 16, on limb force following eccentric (lengthening) contraction-induced muscle injury in normal C57Bl6/N mice. Doses were administered 10 minutes prior to damage and QD thereafter.
In Vivo Assays for Functional Response to Muscle Injury
Under anesthesia, the right hind limb of a mouse is restrained at the knee and the foot attached to a motorized footplate/force transducer. Needle electrodes are inserted into the upper limb, either side of the sciatic nerve and a current sufficient to elicit a maximal muscle contraction is applied. Muscle tension is produced by moving the footplate to lengthen the plantarflexor muscles while the limb is under maximal stimulation. This is repeated 60 times to fatigue the muscles of the lower limb. Anesthesia, limb immobilization and limb stimulation are then repeated at regular intervals to measure maximal isometric force in the recovering limb. 7 to 9 animals are tested for each test condition.

CC1(C)C[C@H](NC(=O)c2cnc(-c3cc(F)cc(Cl)c3)s2)C(=O)N1 (single isomer, unassigned) [Example 16]
IC50 (human H-PGDS): 0.0102 to 0.1 µM | protection from strength loss (maximal isometric torque) 24 hours after injury (male C57Bl/6N mice; male C57Bl/6N mice, PO immediately prior to eccentric contraction challenge): dose-dependent protection from strength loss | restoration of muscle function after 9 days (male C57Bl/6N mice; male C57Bl/6N mice, repeat dosing (QD) PO, all doses greater than 0.1 mg/kg): full restoration of muscle function | limb force / functional repair following eccentric contraction-induced limb muscle injury (FIG. 1) (male C57Bl/6N mice; normal C57Bl6/N mice, doses 10 minutes prior to damage and QD thereafter): Accelerates Functional Repair
